Assays:
E. coli AG100tet = assay: EtBr efflux by real-time fluorometry; conditions: 80 µM
E. coli AG100 [1] = assay: EtBr accumulation by real-time fluorometry; conditions: EtBr 1 µg/ml + inhibitor 80 µM
E. coli AG100 [2] = assay: Checkerboard synergy assay (MIC of antibiotics/EtBr with efflux inhibitor); type: cell-based, Escherichia coli; conditions: AG100
Method: The assays were performed in triplicate and the MIC value was given as result of at least two concordant values.

E. coli AG100 [3] = assay: Membrane potential assay (BacLight, DiOC2(3))

CCCOc1ccc(-c2cc(OCCN3CCNCC3)c3ccccc3n2)cc1 [PQQ4R, 4-(2-(piperazin-1-yl)ethoxy)-2-(4-propoxyphenyl) quinolone]
Fluorescence raw data, Channel Cycling A.530/585hp (E. coli AG100tet; cycle 39, without glucose): 3.367 | Fluorescence raw data, Channel Cycling A.530/585hp (E. coli AG100tet; cycle 40, + glucose): 5.071 | Fluorescence raw data, Channel Cycling A.530/585hp (E. coli AG100tet; cycle 40, without glucose): 3.292 | Fluorescence raw data, Channel Cycling A.530/585hp (E. coli AG100tet; cycle 41, + glucose): 5.036 | Fluorescence raw data, Channel Cycling A.530/585hp (E. coli AG100tet; cycle 41, without glucose): 3.413 | Fluorescence raw data, Channel Cycling A.530/585hp (E. coli AG100tet; cycle 42, + glucose): 4.946 | Fluorescence raw data, Channel Cycling A.530/585hp (E. coli AG100tet; cycle 42, without glucose): 3.2813 | Fluorescence raw data, Channel Cycling A.530/585hp (E. coli AG100tet; cycle 43, + glucose): 5.023 | Fluorescence raw data, Channel Cycling A.530/585hp (E. coli AG100tet; cycle 43, without glucose): 3.329 | Fluorescence raw data, Channel Cycling A.530/585hp (E. coli AG100tet; cycle 44, + glucose): 4.8625 | Fluorescence raw data, Channel Cycling A.530/585hp (E. coli AG100tet; cycle 44, without glucose): 3.331 | Fluorescence raw data, Channel Cycling A.530/585hp (E. coli AG100tet; cycle 45, without glucose): 3.333 | Fluorescence raw data, Channel Cycling A.530/585hp (E. coli AG100tet; cycle 46, without glucose): 3.356 | Fluorescence raw data, Channel Cycling A.530/585hp (E. coli AG100tet; cycle 47, without glucose): 3.3344 | Fluorescence raw data, Channel Cycling A.530/585hp (E. coli AG100tet; cycle 48, without glucose): 3.246 | Fluorescence raw data, Channel Cycling A.530/585hp (E. coli AG100tet; cycle 49, without glucose): 3.317 | Fluorescence raw data, Channel Cycling A.530/585hp (E. coli AG100tet; cycle 50, without glucose): 3.306 | Fluorescence raw data, Channel Cycling A.530/585hp (E. coli AG100tet; cycle 51, without glucose): 3.275 | Fluorescence raw data, Channel Cycling A.530/585hp (E. coli AG100tet; cycle 52, without glucose): 3.293 | Fluorescence raw data, Channel Cycling A.530/585hp (E. coli AG100tet; cycle 53, without glucose): 3.359 | Fluorescence raw data, Channel Cycling A.530/585hp (E. coli AG100tet; cycle 54, without glucose): 3.295 | Fluorescence raw data, Channel Cycling A.530/585hp (E. coli AG100tet; cycle 55, without glucose): 3.253 | Fluorescence raw data, Channel Cycling A.530/585hp (E. coli AG100tet; cycle 56, without glucose): 3.229 | Fluorescence raw data, Channel Cycling A.530/585hp (E. coli AG100tet; cycle 57, without glucose): 3.179 | Fluorescence raw data, Channel Cycling A.530/585hp (E. coli AG100tet; cycle 58, without glucose): 3.169 | Fluorescence raw data, Channel Cycling A.530/585hp (E. coli AG100tet; cycle 59, without glucose): 3.145 | Fluorescence raw data, Channel Cycling A.530/585hp (E. coli AG100tet; cycle 60, without glucose): 3.211 | Fluorescence raw data, Channel Cycling A.530/585hp (E. coli AG100tet; cycle 61, without glucose): 3.105 | EtBr fluorescence (E. coli AG100 [1]; cycle 1): 8.891 | EtBr fluorescence (E. coli AG100 [1]; cycle 2): 15.958 | EtBr fluorescence (E. coli AG100 [1]; cycle 3): 24.4435 | EtBr fluorescence (E. coli AG100 [1]; cycle 4): 32.9586 | EtBr fluorescence (E. coli AG100 [1]; cycle 5): 42.0049 | EtBr fluorescence (E. coli AG100 [1]; cycle 6): 50.7014 | EtBr fluorescence (E. coli AG100 [1]; cycle 7): 59.8624 | EtBr fluorescence (E. coli AG100 [1]; cycle 8): 68.0874 | EtBr fluorescence (E. coli AG100 [1]; cycle 9): 75.8019 | EtBr fluorescence (E. coli AG100 [1]; cycle 10): 82.5362 | EtBr fluorescence (E. coli AG100 [1]; cycle 11): 89.2 | EtBr fluorescence (E. coli AG100 [1]; cycle 12): 95.2197 | EtBr fluorescence (E. coli AG100 [1]; cycle 13): 100 | EtBr fluorescence (E. coli AG100 [1]; cycle 14): 100 | EtBr fluorescence (E. coli AG100 [1]; cycle 15): 100 | EtBr fluorescence (E. coli AG100 [1]; cycle 16): 100 | EtBr fluorescence (E. coli AG100 [1]; cycle 17): 100 | EtBr fluorescence (E. coli AG100 [1]; cycle 18): 100 | EtBr fluorescence (E. coli AG100 [1]; cycle 19): 100 | EtBr fluorescence (E. coli AG100 [1]; cycle 20): 100 | EtBr fluorescence (E. coli AG100 [1]; cycle 21): 100 | EtBr fluorescence (E. coli AG100 [1]; cycle 22): 100 | EtBr fluorescence (E. coli AG100 [1]; cycle 23): 100 | EtBr fluorescence (E. coli AG100 [1]; cycle 24): 100 | EtBr fluorescence (E. coli AG100 [1]; cycle 25): 100 | EtBr fluorescence (E. coli AG100 [1]; cycle 26): 100 | EtBr fluorescence (E. coli AG100 [1]; cycle 27): 100 | EtBr fluorescence (E. coli AG100 [1]; cycle 28): 100 | EtBr fluorescence (E. coli AG100 [1]; cycle 29): 100 | EtBr fluorescence (E. coli AG100 [1]; cycle 30): 100 | MIC of EtBr in presence of the efflux inhibitor (E. coli AG100 [2]; inhibitor 40 μM): 200 µg/mL | MIC of OFX in presence of the efflux inhibitor (E. coli AG100 [2]; inhibitor 40 μM): 0.125 µg/mL | MIC of OXA in presence of the efflux inhibitor (E. coli AG100 [2]; inhibitor 40 μM): 512 µg/mL | MIC of TET in presence of the efflux inhibitor (E. coli AG100 [2]; inhibitor 40 μM): 1 µg/mL | MIC of EtBr in presence of the efflux inhibitor (E. coli AG100 [2]; inhibitor 80 μM): 100 µg/mL | MIC of OFX in presence of the efflux inhibitor (E. coli AG100 [2]; inhibitor 80 μM): 0.125 µg/mL | MIC of OXA in presence of the efflux inhibitor (E. coli AG100 [2]; inhibitor 80 μM): 512 µg/mL | MIC of TET in presence of the efflux inhibitor (E. coli AG100 [2]; inhibitor 80 μM): 1 µg/mL | reduction in EtBr MIC (E. coli AG100 [2]; inhibitor 80 μM): 2 fold | MIC of EtBr in presence of the efflux inhibitor (E. coli AG100 [2]; inhibitor 160 μM): 50 µg/mL | MIC of OFX in presence of the efflux inhibitor (E. coli AG100 [2]; inhibitor 160 μM): 0.125 µg/mL | MIC of OXA in presence of the efflux inhibitor (E. coli AG100 [2]; inhibitor 160 μM): 512 µg/mL | MIC of TET in presence of the efflux inhibitor (E. coli AG100 [2]; inhibitor 160 μM): 1 µg/mL | reduction in EtBr MIC (E. coli AG100 [2]; inhibitor 160 μM): 4 fold | effect on OXA MIC (E. coli AG100 [2]; inhibitor 40 to 160 µM): no effect | reduction in OFX MIC (E. coli AG100 [2]; inhibitor 40 to 160 µM): 2 fold | reduction in TET MIC (E. coli AG100 [2]; inhibitor 40 to 160 µM): 2 fold | membrane depolarization (E. coli AG100 [3]; 80 µM): 83% | membrane depolarization (E. coli AG100 [3]; 160 μM (1/4 MIC)): 85% | membrane depolarization (E. coli AG100 [3]; 320 μM (1/2 MIC)): 89% | membrane depolarization (E. coli AG100 [3]; 640 μM (MIC)): 91%

— article PMC5433425 (PeerJ, 2017)
